One assay has as its target recombinant human FAP (Homo sapiens (Human), UniProt Q12884). Briefly: In vitro enzyme IC50 assay, FAP. The assay is classed as biochemical. The following applies: for IC50: read-out: FAP Inhibition (IC50). An excerpt:
(§1) The peptide libraries XPYSWS-NH2, Ac-XPYSWS-NH2, GXYSWS-NH2, and Ac-GXYSWS-NH2, where X represents all natural amino acids except cysteine were synthesized by the Tufts University Core Facility. The DPPIV enzyme used for the specificity studies was previously purified by our laboratory at Tufts University from human placenta, and the purified human FAP enzyme used for these studies was kindly provided by Syrxx, Inc. For the in vitro IC50 determination assays, recombinant human DPPIV, DPP9, FAP, and PREP were purchased from R&D Systems, and DPP8 was from Biomol International. Buffer systems used were A (25 mM Tris, pH 8.0), B (50 mM Tris, pH 7.5), C (50 mM Tris, 140 mM NaCl, pH 7.5), D (25 mM Tris, 250 mM NaCl, pH 7.5), and E (20 mM Tris, 20 mM KCl, pH 7.4).
(§2) In Vitro Enzyme IC50 Assays
(§3) Enzymatic activity of DPPIV, DPP8, DPP9, FAP, and PREP was measured at 25° C. on a Molecular Devices M2^e multidetection microtiter plate reader, monitoring the fluorescence at an excitation wavelength of 380 nm and an emission wavelength of 460 nm. The substrate was either H-Gly-Pro-AMC for the DPPIV, DPP8, and DPP9 assays or Z-Gly-Pro-AMC for the FAP and PREP assays.
(§4) A (DPPIV and DPP9), buffer B (DPP8), buffer C (FAP), or buffer D (PREP) and a suitable amount of inhibitor (ranging between 10^−4 and 10^−11M) in a total volume of 210 μL. The final enzyme concentrations were 0.1, 0.8, 0.4, 1.2, and 0.6 nM for DPPIV, DPP8, DPP9,
(§5) FAP, and PREP, respectively. […] Those prepared in pH 2.0 solution were preincubated at 25° C. for 4 h prior to dilution. Immediately prior to the commencement of the experiment, the 100 mM stocks were further diluted to 10^−3M in the appropriate assay buffer, from which 1:10 serial dilutions were prepared. All inhibitors were tested in triplicate.

The target of another assay is recombinant human PREP (Homo sapiens (Human), UniProt P48147). Briefly: In vitro enzyme IC50 assay, PREP. In kind it is biochemical. Conditions: read-out: PREP Inhibition (IC50).
From the text: as §1, §2, §3, §4, §5

Where two headings read alike, the source gives them in different places.

One may read the IC50 as the concentration that gives 50% inhibition.

Chain of recombinant human FAP (Q12884 whole entry): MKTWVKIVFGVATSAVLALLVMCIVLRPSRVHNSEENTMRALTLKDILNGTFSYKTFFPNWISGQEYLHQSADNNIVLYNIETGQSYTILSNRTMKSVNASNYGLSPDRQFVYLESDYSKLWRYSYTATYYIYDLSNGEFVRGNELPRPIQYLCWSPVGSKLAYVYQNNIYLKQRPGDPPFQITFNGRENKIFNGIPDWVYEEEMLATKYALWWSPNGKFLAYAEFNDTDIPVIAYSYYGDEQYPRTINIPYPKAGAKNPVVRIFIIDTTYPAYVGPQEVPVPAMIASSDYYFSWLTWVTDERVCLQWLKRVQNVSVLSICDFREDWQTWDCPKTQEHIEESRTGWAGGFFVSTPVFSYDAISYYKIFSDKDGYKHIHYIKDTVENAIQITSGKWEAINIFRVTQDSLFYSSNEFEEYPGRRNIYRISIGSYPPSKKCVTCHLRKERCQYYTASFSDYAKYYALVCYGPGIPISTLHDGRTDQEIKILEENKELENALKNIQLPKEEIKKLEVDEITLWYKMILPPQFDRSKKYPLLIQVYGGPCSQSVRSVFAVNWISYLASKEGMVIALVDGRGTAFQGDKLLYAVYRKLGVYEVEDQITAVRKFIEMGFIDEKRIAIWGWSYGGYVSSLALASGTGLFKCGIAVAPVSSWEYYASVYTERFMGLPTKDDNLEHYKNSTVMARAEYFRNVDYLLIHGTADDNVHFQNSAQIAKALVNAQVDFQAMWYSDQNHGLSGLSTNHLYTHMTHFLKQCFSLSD
Chain of recombinant human PREP (P48147 whole entry): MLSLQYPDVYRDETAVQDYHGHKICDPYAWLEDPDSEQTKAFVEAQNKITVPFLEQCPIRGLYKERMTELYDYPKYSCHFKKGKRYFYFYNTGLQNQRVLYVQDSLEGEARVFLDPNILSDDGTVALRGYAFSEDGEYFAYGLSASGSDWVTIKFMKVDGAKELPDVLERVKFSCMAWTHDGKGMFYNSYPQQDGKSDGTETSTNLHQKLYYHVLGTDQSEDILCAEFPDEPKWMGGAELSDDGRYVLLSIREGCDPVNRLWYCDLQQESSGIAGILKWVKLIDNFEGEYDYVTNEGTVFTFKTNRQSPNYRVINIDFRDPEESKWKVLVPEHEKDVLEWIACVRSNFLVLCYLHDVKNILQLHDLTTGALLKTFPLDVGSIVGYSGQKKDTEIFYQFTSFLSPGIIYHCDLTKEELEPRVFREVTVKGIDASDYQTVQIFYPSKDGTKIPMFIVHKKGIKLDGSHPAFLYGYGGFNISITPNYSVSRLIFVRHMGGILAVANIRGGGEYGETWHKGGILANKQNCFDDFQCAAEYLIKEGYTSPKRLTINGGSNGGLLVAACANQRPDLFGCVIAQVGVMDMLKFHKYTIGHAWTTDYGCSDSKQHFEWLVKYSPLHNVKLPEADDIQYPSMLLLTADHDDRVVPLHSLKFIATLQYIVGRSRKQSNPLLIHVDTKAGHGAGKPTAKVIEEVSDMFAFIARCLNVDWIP

Turning to `C[C@@H](NC(=O)c1ccc(F)cc1)C(=O)N1CCC[C@H]1B(O)O`, the “FAP Selectivity, IC50(PREP)/IC50(FAP)” value on recombinant human FAP (pH2.0) was 19; at recombinant human FAP (pH7.5) it was 22. Besides, the 50% inhibitory concentration (IC50) at recombinant human FAP (pH2.0) worked out at 220 nM; on recombinant human FAP (pH7.5), 260 nM; at recombinant human PREP (pH2.0) it was 4100 nM; on recombinant human PREP (pH7.5), 5700 nM.

For the molecule `C[C@@H](NC(=O)c1ccccc1F)C(=O)N1CCC[C@H]1B(O)O`, the “FAP Selectivity, IC50(PREP)/IC50(FAP)” value on recombinant human FAP (pH2.0) came out at 5.6; on recombinant human FAP (pH7.5) it was 4.8. The IC50 on recombinant human FAP (pH2.0) was 390 nM; at recombinant human FAP (pH7.5), 650 nM; at recombinant human PREP (pH2.0), 2200 nM; on recombinant human PREP (pH7.5), 3100 nM.

With `C[C@@H](NC(=O)c1ccc(F)cc1F)C(=O)N1CCC[C@H]1B(O)O`, the “FAP Selectivity, IC50(PREP)/IC50(FAP)” value on recombinant human FAP (pH2.0) stood at 1.1; at recombinant human FAP (pH7.5) it was 3.6. Besides, the IC50 is 690 nM on recombinant human FAP (pH2.0), 390 nM at recombinant human FAP (pH7.5), 790 nM at recombinant human PREP (pH2.0) and 1400 nM on recombinant human PREP (pH7.5).

As for `C[C@@H](NC(=O)c1c(F)c(F)c(F)c(F)c1F)C(=O)N1CCC[C@H]1B(O)O`, the entries for the “FAP Selectivity, IC50(PREP)/IC50(FAP)” value on recombinant human FAP (pH2.0) and on recombinant human FAP (pH7.5) were 2.7 and 4.5, respectively. The IC50 on recombinant human FAP (pH2.0) was determined as 450 nM; on recombinant human FAP (pH7.5), 330 nM; at recombinant human PREP (pH2.0), 1200 nM; at recombinant human PREP (pH7.5), 1500 nM.

As to `C[C@@H](NC(=O)c1ccc(OCF)cc1)C(=O)N1CCC[C@H]1B(O)O`, the “FAP Selectivity, IC50(PREP)/IC50(FAP)” value was determined as 8.3 on recombinant human FAP (pH2.0) and 7.9 on recombinant human FAP (pH7.5). The IC50 on recombinant human FAP (pH2.0) worked out at 240 nM; on recombinant human FAP (pH7.5), 240 nM; at recombinant human PREP (pH2.0), 2000 nM; on recombinant human PREP (pH7.5), 1900 nM.

Consider `C[C@@H](NC(=O)c1cccc(OCF)c1)C(=O)N1CCC[C@H]1B(O)O`, for which the “FAP Selectivity, IC50(PREP)/IC50(FAP)” value at recombinant human FAP (pH2.0) was 0.37; at recombinant human FAP (pH7.5), 0.41. For the same molecule, the IC50 at recombinant human FAP (pH2.0) came to 130 nM; on recombinant human FAP (pH7.5), 130 nM; at recombinant human PREP (pH2.0) it was 48 nM; at recombinant human PREP (pH7.5), 53 nM.

As to `C[C@@H](NC(=O)c1cc(F)ncc1F)C(=O)N1CCC[C@H]1B(O)O`, the “FAP Selectivity, IC50(PREP)/IC50(FAP)” value at recombinant human FAP (pH2.0) is on record as 14; at recombinant human FAP (pH7.5), 16. Further, the IC50 on recombinant human FAP (pH2.0) is 140 nM; on recombinant human FAP (pH7.5), 140 nM; at recombinant human PREP (pH2.0), 2000 nM; at recombinant human PREP (pH7.5) it was 2300 nM.

For `C[C@@H](NC(=O)c1cc(F)nc(F)c1)C(=O)N1CCC[C@H]1B(O)O`, the “FAP Selectivity, IC50(PREP)/IC50(FAP)” value is on record as 23 at recombinant human FAP (pH2.0) and 19 at recombinant human FAP (pH7.5). The IC50 was 100 nM on recombinant human FAP (pH2.0), 130 nM on recombinant human FAP (pH7.5), 2300 nM at recombinant human PREP (pH2.0) and 2500 nM on recombinant human PREP (pH7.5).

Turning to `C[C@@H](NC(=O)c1ccnc(F)c1F)C(=O)N1CCC[C@H]1B(O)O`, the “FAP Selectivity, IC50(PREP)/IC50(FAP)” value on recombinant human FAP (pH2.0) and at recombinant human FAP (pH7.5) was 15 in each case. The IC50 at recombinant human FAP (pH2.0) came to 130 nM; at recombinant human FAP (pH7.5), 150 nM; at recombinant human PREP (pH2.0) it was 1900 nM; on recombinant human PREP (pH7.5) it was 2200 nM.
